Assay [1] concerns the target T1, catalytic domain (JH1, amino acids 826-1132) of human JAK2 (Homo sapiens, UniProt O60674).
T1 construct: catalytic domain (JH1, amino acids 826-1132) of human JAK2; FLAG (N); purchased Carna Biosciences 08-445-20N; host or cells: baculovirus expression system
The assay is described as follows: JAK2 LanthaScreen JH1 binding assay. To be noted: 50 nM tracer, 2 hours at 25° C., read-out: JH1 BIND IC50. As to the method: Example A. JAK2 LanthaScreen […] Binding Assay
JAK2 JH1 binding assay utilizes catalytic domain (JH1, amino acids 826-1132) of human JAK2 expressed as N-terminal FLAG-tagged, biotinylated protein in a baculovirus expression system (Carna Biosciences, Product #08-445-20N). The assay was conducted in black 384-well polystyrene plates in a final reaction volume of 20 μL. JAK2 JH1 (1.5 nM) was incubated with compounds (100 nL serially diluted in DMSO) in the presence of 50 nM fluorescent JAK2-JH1 tracer and 0.5 nM Streptavidin-Tb cryptate (Cisbio Part #610SATLB) in assay buffer (50 mM Tris, pH=7.5, 10 mM MgCl2, 0.01% Brij-35, 0.1% BSA, 1 mM EGTA, 5% Glycerol and 5 mM DTT). Non-specific binding was accessed in the presence of 2 mM ATP. After incubation for 2 hours at 25° C., LanthaScreen signals were read on a PHERAstar FS plate reader (BMG LABTECH). Data was analyzed with IDBS XLfit and GraphPad Prism 5.0 software using a four parameter dose response curve to determine IC50 for each compound.
(In TR-FRET formats the signal depends on donor and acceptor labels being close together.)

Assay [2] deals with T2, pseudo-kinase domain (JH2, amino-acids 536-812 with 3 surface mutations W659A, W777A, F794H) of human Wild Type JAK2 (Homo sapiens, UniProt O60674, F794H/W659A/W777A).
T2 construct: pseudo-kinase domain (JH2, amino-acids 536-812 with 3 surface mutations W659A, W777A, F794H); His (C); Avi (biotinylated) (C); purchased BPS Bioscience 79463; host or cells: baculovirus expression system
As to the kind of experiment: JAK2 LanthaScreen JH2-WT binding assay. To be noted: 50 nM tracer, 1 hour at 25° C., read-out: JH2 BIND WT IC50. As for the experimental part:
Example B. JAK2 LanthaScreen JH2-WT Binding Assay
(§1) JAK2 JH2-WT binding assay utilizes pseudo-kinase domain (JH2, amino-acids 536-812 with 3 surface mutations W659A, W777A, F794H) of human Wild Type JAK2 expressed as C-terminal His-Avi-tagged, biotinylated protein in a baculovirus expression system (BPS Bioscience, Catalog #79463). The assay was conducted in black 384-well polystyrene plates in a final reaction volume of 20 μL. JAK2 JH2-WT (0.145 nM) was incubated with compounds (100 nL serially diluted in DMSO) in the presence of 50 nM Fluorescent JAK2-JH2 Tracer (MedChem Express Catalog #HY-102055) and 0.25 nM Streptavidin-Tb cryptate (Cisbio Part #610SATLB) in assay buffer (50 mM Tris, pH=7.5, 10 mM MgCl2, 0.01% Brij-35, 0.1% BSA, 1 mM EGTA, 5% Glycerol and 5 mM DTT). Non-specific binding was accessed in the presence of 2 mM ATP. After incubation for 1 hour at 25° C., LanthaScreen signals were read on a PHERAstar FS plate reader (BMG LABTECH). Data was analyzed with IDBS XLfit and GraphPad Prism 5.0 software using a four parameter dose response curve to determine IC50 for each compound.

For assay [3], the target named is T3, pseudo-kinase domain (JH2, amino-acids 536-812 with 3 surface mutations W659A, W777A, F794H) of human V617F mutant JAK2 (Homo sapiens, UniProt O60674, F794H/V617F/W659A/W777A).
T3 construct: pseudo-kinase domain (JH2, amino-acids 536-812 with 3 surface mutations W659A, W777A, F794H); His (C); Avi (biotinylated) (C); purchased BPS Bioscience 79498; host or cells: baculovirus expression system
The assay is described as follows: JAK2 LanthaScreen JH2-V617F binding assay. To be noted: 50 nM tracer, 1 hour at 25° C., read-out: JH2 BIND V617F IC50. As to the method:
Example C. JAK2 LanthaScreen JH2-V617F Binding Assay
as §1, with “JH2-V617F” for “JH2-WT”, “V617F mutant” for “Wild Type”, “#79498).” for “#79463).”, “JH2-V617F (0.26” for “JH2-WT (0.145”

Each structure is given as a SMILES string.

T2 sequence (O60674 536-812 W659A/W777A/F794H): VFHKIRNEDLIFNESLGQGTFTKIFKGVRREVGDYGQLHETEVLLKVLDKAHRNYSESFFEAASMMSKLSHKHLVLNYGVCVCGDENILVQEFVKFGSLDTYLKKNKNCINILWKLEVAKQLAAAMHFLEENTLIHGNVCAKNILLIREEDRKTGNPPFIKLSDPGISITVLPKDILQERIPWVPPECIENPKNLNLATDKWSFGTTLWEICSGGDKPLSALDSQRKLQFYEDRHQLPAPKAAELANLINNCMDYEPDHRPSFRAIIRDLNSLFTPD
T1 sequence (O60674 826-1132): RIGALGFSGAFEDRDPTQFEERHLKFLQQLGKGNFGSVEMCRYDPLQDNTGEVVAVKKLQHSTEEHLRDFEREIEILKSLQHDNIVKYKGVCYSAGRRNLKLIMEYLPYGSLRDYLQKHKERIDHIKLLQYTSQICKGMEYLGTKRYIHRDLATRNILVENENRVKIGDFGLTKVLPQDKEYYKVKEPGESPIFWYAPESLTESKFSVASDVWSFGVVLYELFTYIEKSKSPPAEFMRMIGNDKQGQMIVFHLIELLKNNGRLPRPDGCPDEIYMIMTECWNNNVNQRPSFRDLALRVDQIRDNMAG
T3 sequence (O60674 536-812 V617F/W659A/W777A/F794H): as the sequence (O60674 536-812 W659A/W777A/F794H) above, with V82F counted along it

Turning to `COC(=O)N[C@@H]1CC[C@@H](N2C(=O)NCc3cnc4[nH]c(-c5cnn(C)c5)c(-c5ccc6c(cnn6CC6CC6)c5)c4c32)C1` [Example 23, Methyl ((1R,3R)-3-(9-(1-(cyclopropylmethyl)-1H-indazol-5-yl)-8-(1-methyl-1H-pyrazol-4-yl)-2-oxo-2,3,4,7-tetrahydro-1H-pyrrolo[3′,2′:5,6]pyrido[4,3-d]pyrimidin-1-yl)cyclopentyl) carbamate], the values for the IC50 in assay [1], in assay [2] and in assay [3] were 100 to 500 nM, not above 10 nM and 10 to 100 nM, respectively.

Regarding `CC(=O)N[C@H]1C[C@@H](N2C(=O)NCc3cnc4[nH]c(-c5cnn(C)c5)c(-c5ccc6c(cnn6C(C)C)c5)c4c32)C1` [Example 5, N-((1s,3s)-3-(9-(1-Isopropyl-1H-indazol-5-yl)-8-(1-methyl-1H-pyrazol-4-yl)-2-oxo-2,3,4,7-tetrahydro-1H-pyrrolo[3′,2′:5,6]pyrido[4,3-d]pyrimidin-1-yl)cyclobutyl) acetamide], the IC50 is 500 to 1000 nM in assay [1], 10 to 100 nM in assay [2] and 10 to 100 nM in assay [3].

Regarding `COC(=O)N[C@H]1C[C@H](N2C(=O)NCc3cnc4[nH]c(C5CC5)c(-c5ccc6c(cnn6C(C)C)c5)c4c32)C1` [Example 36, Methyl ((1r,3r)-3-(8-cyclopropyl-9-(1-isopropyl-1H-indazol-5-yl)-2-oxo-2,3,4,7-tetrahydro-1H-pyrrolo[3′,2′:5,6]pyrido [4,3-d]pyrimidin-1-yl)cyclobutyl) carbamate], the IC50 is more than 1000 nM in assay [1], 10 to 100 nM in assay [2] and 10 to 100 nM in assay [3].

For `CC(C)n1ncc2cc(-c3c(-c4cnn(C)c4)[nH]c4ncc5c(c34)N(C3CCN(S(C)(=O)=O)CC3)C(=O)NC5)ccc21` [Example 16, 9-(1-Isopropyl-1H-indazol-5-yl)-8-(1-methyl-1H-pyrazol-4-yl)-1-(1-(methylsulfonyl)piperidin-4-yl)-1,3,4,7-tetrahydro-2H-pyrrolo [3′,2′:5,6]pyrido[4,3-d]pyrimidin-2-one], the IC50 in assay [1] was more than 1000 nM; in assay [2], 10 to 100 nM; in assay [3], 10 to 100 nM.

For `CC(=O)N1CCC(N2C(=O)NCc3cnc4[nH]c(-c5cnn(C)c5)c(-c5ccc6c(cnn6C(C)C)c5)c4c32)CC1` [Example 15, 1-(1-Acetylpiperidin-4-yl)-9-(1-isopropyl-1H-indazol-5-yl)-8-(1-methyl-1H-pyrazol-4-yl)-1,3,4,7-tetrahydro-2H-pyrrolo [3′,2′:5,6]pyrido[4,3-d]pyrimidin-2-one], the 50% inhibitory concentration (IC50) is more than 1000 nM in assay [1], 10 to 100 nM in assay [2] and 10 to 100 nM in assay [3].

Turning to `CC(C)n1ncc2cc(-c3c(-c4cnn(C)c4)[nH]c4ncc5c(c34)N([C@H]3CC[C@@H]3NS(C)(=O)=O)C(=O)NC5)ccc21` (racemic) [Example 7, N-(trans-2-(9-(1-Isopropyl-1H-indazol-5-yl)-8-(1-methyl-1H-pyrazol-4-yl)-2-oxo-2,3,4,7-tetrahydro-1H-pyrrolo[3′,2′:5,6]pyrido[4,3-d]pyrimidin-1-yl)cyclobutyl) methan esulfonamide], the figures for the IC50 in assay [1], in assay [2] and in assay [3] were more than 1000 nM, 10 to 100 nM and 10 to 100 nM, respectively.

For the molecule `COCc1ccc(-c2c(-c3cnn(C)c3)[nH]c3ncc4c(c23)N([C@@H]2CC[C@@H](NC(=O)OC)C2)C(=O)NC4)cc1` [Example 32, Methyl ((1R,3R)-3-(9-(4-(methoxymethyl)phenyl)-8-(1-methyl-1H-pyrazol-4-yl)-2-oxo-2,3,4,7-tetrahydro-1H-pyrrolo[3′,2′:5,6]pyrido[4,3-d]pyrimidin-1-yl)cyclopentyl) carbamate], the IC50 is 500 to 1000 nM in assay [1], 10 to 100 nM in assay [2] and 10 to 100 nM in assay [3].

Turning to `COC(=O)N[C@H]1C[C@H](N2C(=O)NC(C)c3cnc4[nH]c(-c5cnn(C)c5)c(-c5ccc6c(cnn6C(C)C)c5)c4c32)C1` (mixture of isomers) [Example 38, Methyl ((1r,3r)-3-(9-(1-isopropyl-1H-indazol-5-yl)-4-methyl-8-(1-methyl-1H-pyrazol-4-yl)-2-oxo-2,3,4,7-tetrahydro-1H-pyrrolo[3′,2′:5,6]pyrido[4,3-d]pyrimidin-1-yl)cyclobutyl)carbamate], the IC50 is more than 1000 nM in assay [1], 10 to 100 nM in assay [2] and 10 to 100 nM in assay [3].

Turning to `COC(=O)N[C@]1(C)CC[C@H](N2C(=O)NCc3cnc4[nH]c(-c5cnn(C)c5)c(-c5ccc6c(cnn6C(C)C)c5)c4c32)CC1` [Example 13, Methyl ((1s,4s)-4-(9-(1-isopropyl-1H-indazol-5-yl)-8-(1-methyl-1H-pyrazol-4-yl)-2-oxo-2,3,4,7-tetrahydro-1H-pyrrolo[3′,2′:5,6]pyrido[4,3-d]pyrimidin-1-yl)-1-methylcyclohexyl)carbamate], the IC50 is more than 1000 nM in assay [1], 10 to 100 nM in assay [2] and 10 to 100 nM in assay [3].

For the molecule `CC(C)n1ncc2cc(-c3c(-c4cnn(C)c4)[nH]c4ncc5c(c34)N([C@H]3C[C@@H](NS(C)(=O)=O)C3)C(=O)NC5)ccc21` [Example 6, N-((1s,3s)-3-(9-(1-Isopropyl-1H-indazol-5-yl)-8-(1-methyl-1H-pyrazol-4-yl)-2-oxo-2,3,4,7-tetrahydro-1H-pyrrolo[3′,2′:5,6]pyrido[4,3-d]pyrimidin-1-yl)cyclobutyl) methanesulfonamide], the IC50 is 100 to 500 nM in assay [1], not above 10 nM in assay [2] and 10 to 100 nM in assay [3].

As to `COC(=O)N[C@@H]1CC[C@@H](n2c(=O)nc(N)c3cnc4[nH]c(-c5cnn(C)c5)c(-c5ccc6c(cnn6C(C)C)c5)c4c32)C1` [Example 41, Methyl ((1R,3R)-3-(4-amino-9-(1-isopropyl-1H-indazol-5-yl)-8-(1-methyl-1H-pyrazol-4-yl)-2-oxo-2,7-dihydro-1H-pyrrolo[3′,2′:5,6]pyrido[4,3-d]pyrimidin-1-yl)cyclopentyl)carbamate], the IC50 in assay [1] was 500 to 1000 nM; in assay [2], not above 10 nM; in assay [3] it was not above 10 nM.

Consider `CC(C)n1ncc2cc(-c3c(-c4cnn(C)c4)[nH]c4ncc5c(c34)N([C@@H]3CC[C@@H](NS(C)(=O)=O)C3)C(=O)NC5)ccc21` [Example 10, N-((1R,3R)-3-(9-(1-Isopropyl-1H-indazol-5-yl)-8-(1-methyl-1H-pyrazol-4-yl)-2-oxo-2,3,4,7-tetrahydro-1H-pyrrolo[3′,2′:5,6]pyrido[4,3-d]pyrimidin-1-yl)cyclopentyl) methanesulfonamide], for which the half-maximal inhibitory concentration (IC50) in assay [1] was more than 1000 nM; in assay [2], 10 to 100 nM; in assay [3] it was 100 to 500 nM.

As a reminder, the IC50 is the concentration that gives 50% inhibition.

(Values after patent publication US20240300948A1, “Heterocyclic Compounds As Kinase Inhibitors” (Incyte Corporation, priority 2023, published 2024).)
